# Legend:
# OngC = target: T1, OngC (Pseudoalteromonas prydzensis, UniProt Z9U939ZVG8); assay: ammonia release assay kit; Q-TOF-MS; assay type: biochemical; settings: 10 mM substrate (made in situ by OngB from GlcNAc1A), 10 mM Bis-Tris-HCl pH 7.5, 25 °C
# T1 construct: full length, C-terminal His tag, pET22b, E. coli BL21 (DE3)
# T1 sequence (Z9U939ZVG8 1-415): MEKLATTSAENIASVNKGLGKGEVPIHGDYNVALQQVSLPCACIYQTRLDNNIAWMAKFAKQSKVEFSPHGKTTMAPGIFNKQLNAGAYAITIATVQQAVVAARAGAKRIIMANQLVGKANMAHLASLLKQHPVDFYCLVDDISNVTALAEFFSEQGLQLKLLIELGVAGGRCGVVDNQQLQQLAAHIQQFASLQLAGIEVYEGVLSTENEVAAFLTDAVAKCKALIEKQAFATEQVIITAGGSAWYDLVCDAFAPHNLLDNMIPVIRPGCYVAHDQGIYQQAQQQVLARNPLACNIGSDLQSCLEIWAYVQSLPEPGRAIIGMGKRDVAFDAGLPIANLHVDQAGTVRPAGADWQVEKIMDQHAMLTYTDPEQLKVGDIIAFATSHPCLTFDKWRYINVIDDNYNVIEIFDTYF
# OngB = target: T2, OngB (Pseudoalteromonas prydzensis, UniProt A0A7V1CY72); assay: acetate release assay kit; Q-TOF-MS; assay type: biochemical; settings: 25 mM substrate, 10 mM Bis-Tris-HCl pH 7.5, 25 °C, 30 min
# T2 construct: gene ENH88_07920; full length, C-terminal His tag, pET22b, E. coli BL21 (DE3)
# T2 sequence (A0A7V1CY72 1-489): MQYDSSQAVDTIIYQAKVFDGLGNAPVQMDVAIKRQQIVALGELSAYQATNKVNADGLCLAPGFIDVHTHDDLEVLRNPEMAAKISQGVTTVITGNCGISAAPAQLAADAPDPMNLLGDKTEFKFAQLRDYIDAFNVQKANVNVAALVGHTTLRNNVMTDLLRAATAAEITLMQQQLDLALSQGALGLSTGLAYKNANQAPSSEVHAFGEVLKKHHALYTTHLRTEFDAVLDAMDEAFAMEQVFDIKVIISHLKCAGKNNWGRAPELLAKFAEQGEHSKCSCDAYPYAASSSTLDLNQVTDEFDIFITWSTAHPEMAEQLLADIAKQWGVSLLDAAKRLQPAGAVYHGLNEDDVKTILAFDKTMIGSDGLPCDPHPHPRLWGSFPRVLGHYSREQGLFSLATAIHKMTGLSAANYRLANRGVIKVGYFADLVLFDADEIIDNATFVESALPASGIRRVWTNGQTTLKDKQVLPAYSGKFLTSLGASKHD
SMILES,ammonia release assay kit; Q-TOF-MS (OngC),acetate release assay kit; Q-TOF-MS (OngB)
"N[C@@H](C(=O)O)[C@@H](O)[C@H](O)[C@H](O)CO [GlcN1A, 2-(amino)-2-deoxy-D-gluconic acid]",OngC can deaminate GlcN1A to produce ammonia and KDG,–
"CC(=O)N[C@@H](C(=O)O)[C@@H](O)[C@H](O)[C@H](O)CO [GlcNAc1A, 2-(acetylamino)−2-deoxy-D-gluconic acid]",–,Only OngB was shown to act on GlcNAc1A to produce acetate
